According to patent publication US20120035125A1, “FULVIC ACID IN COMBINATION WITH FLUCONAZOLE OR AMPHOTERICIN B FOR THE TREATMENT OF FUNGAL INFECTIONS” (Natracine UK Limited, priority 2009, published 2012):
≈ marks a conversion by molar mass, not a printed value.

How the values were obtained:
Absidia corymbifera = experiment: In vitro susceptibility (MIC, broth microdilution), CHD-FA and amphotericin B; format: cell-based; settings: Lichtheimia corymbifera
Description: (§1) Each culture was grown on Sabouraud agar at 37° C. for 10 days to ensure purity and to allow spores to mature
(§2) RPMI-1640 (Sigma, Dorset, UK) supplemented to 2% glucose (Sigma), buffered with morpholinopropanesulfonic acid (MOPS), (Sigma) and adjusted to pH 7.0 was used as recommended in the Clinical Laboratory Standards M38A document (Reference method for broth dilution antifungal susceptibility testing of conidium-forming filamentous fungi. Approved standard. Document M38-A 2002a. NCCLS, Wayne, Pa. 2002. NCCLS, Wayne, Pa., USA).
(§3) a) All fungi were cultured in ambient air at 35-37° C. on recovery medium (Sabouraud dextrose agar) for 8-10 days before testing.
(§4) b) Inoculum suspensions were prepared from day 8 to 10 day cultures grown on Sabouraud dextrose agar at 37° C. in vented tissue culture flasks to avoid crosscontamination. Spores were harvested by flooding the surface of the growth with 25 ml of sterile phosphate buffered saline plus 0.05% Tween 80. The spore count was adjusted using a counting chamber.
(§5) c) The inoculum was completely suspended by vigorous shaking on a vortex mixer for 15 s. […] Drug-free and cell-free controls were included. (The RPMI medium used in the plates was prepared at either 2× or 4×the final strength to allow for dilution once the inoculum and diluted CHD-FA was added).
(§6) Sterile plastic, disposable, microtitration plates with 96 flat-bottom wells were used.
(§7) a) Column 1 of the microtitration tray was filled with 100 μL of sterile water containing four times the final drug concentration (16 mg/L amphotericin B).
(§8) b) Columns 2-12 were filled with 50 μL of distilled water
(§9) c) 50 μL amounts were taken from wells in column 1 and diluted two-fold by transferring them to column 2 with a multichannel pipette (±2% coefficient of variation). 50 μL samples were then removed from column 2 and transferred to column 3, and so on through to column 10. The last 50 μL of diluted drug is then discarded. Thus, each well in columns 1-10 will contain 50 μL of water containing four times the final antifungal drug concentrations.
(§10) Stock solutions of CHD-FA were produced containing 4%, 2%, 1%, 0.5% and 0.25% of the native compound.
(§11) 100 μL of the diluted CHD-FA was added to microtitration trays in so that row A contains a final dilution of 2% row B, 1%, row C 0.5%, row D 0.25% row E 0.125% and row F diluent only.
(§12) 50 μL of the diluted spore suspension in 4×RPMI was added to all wells. This produces a well containing 200 μL final volume (made up of 50 μL diluted antifungal, 100 μL diluted CHD-FA or diluent, 50 μL of 4×RPMI containing fungal spores)
(§13) All plates were incubated at 37° C. in air in a darkened incubator.
(§14) Plates were read visually with the endpoint taken as the lowest concentration of drug that inhibited growth by 50% of that of the drug free control.

Aspergillus flavus = experiment: as above; format: cell-based; settings: for MIC: Aspergillus flavus
Description: as §1, §2, §3, §4, §5, §6, §7, §8, §9, §10, §11, §12, §13, §14

Fusarium solani = experiment: as above; format: cell-based
Description: as §1, §2, §3, §4, §5, §6, §7, §8, §9, §10, §11, §12, §13, §14

Aspergillus terreus = experiment: as above; format: cell-based; settings: for MIC: Aspergillus terreus
Description: as §1, §2, §3, §4, §5, §6, §7, §8, §9, §10, §11, §12, §13, §14

Aspergillus fumigatus = experiment: as above; format: cell-based; settings: for MIC: Aspergillus fumigatus
Description: as §1, §2, §3, §4, §5, §6, §7, §8, §9, §10, §11, §12, §13, §14

Aspergillus = settings: stated to be toxic to the subject; cited from earlier work

Work on C[C@@H]1[C@H](O)[C@@H](C)/C=C/C=C/C=C/C=C/C=C/C=C/C=C/[C@H](O[C@@H]2O[C@H](C)[C@@H](O)[C@H](N)[C@@H]2O)C[C@@H]2O[C@](O)(C[C@@H](O)C[C@@H](O)[C@H](O)CC[C@@H](O)C[C@@H](O)CC(=O)O[C@H]1C)C[C@H](O)[C@H]2C(=O)O [Amphotericin B] yielded an MIC (Absidia corymbifera; Absidia isolate 1) of 0.25 mg/L (≈ 0.271 µM), an MIC (Absidia corymbifera; Absidia isolate 2) of 0.06 mg/L (≈ 0.0649 µM) and an Amphotericin MIC (Aspergillus flavus; A. flavus strain 1, CHD-FA Dilution 0.125) of over 4 mg/L. For the same molecule, the “Amphotericin MIC” value (Aspergillus flavus; A. flavus strain 1, CHD-FA Dilution 0.25) was “No Growth”, the “Amphotericin MIC” value (Aspergillus flavus; A. flavus strain 1, CHD-FA Dilution 0.5) was “No Growth” and the Amphotericin MIC (Aspergillus flavus; A. flavus strain 2, CHD-FA Dilution 0.125) was 0.25 mg/L. For the same molecule, the “Amphotericin MIC” value (Aspergillus flavus; A. flavus strain 2, CHD-FA Dilution 0.25) was “No Growth”, the “Amphotericin MIC” value (Aspergillus flavus; A. flavus strain 2, CHD-FA Dilution 0.5) was “No Growth” and the MIC (Aspergillus flavus; A. flavus isolate 1) was 4 mg/L (≈ 4.33 µM). For the same molecule, the MIC (Aspergillus flavus; A. flavus isolate 2) was 0.5 mg/L (≈ 0.541 µM), the “Amphotericin MIC” value (Fusarium solani; Fusarium isolate 2) was 2.0 mg/L and the MIC (Fusarium solani; Fusarium solani, Fusarium isolate 1) was 2 mg/L (≈ 2.16 µM). The Amphotericin MIC (Aspergillus terreus; A. terreus strain 1, CHD-FA Dilution 0.125) was 0.25 mg/L, the “Amphotericin MIC” value (Aspergillus terreus; A. terreus strain 1, CHD-FA Dilution 0.25) was “No Growth” and the “Amphotericin MIC” value (Aspergillus terreus; A. terreus strain 1, CHD-FA Dilution 0.5) was “No Growth”. For the same molecule, the Amphotericin MIC (Aspergillus terreus; A. terreus strain 2, CHD-FA Dilution 0.125) was 0.125 mg/L, the “Amphotericin MIC” value (Aspergillus terreus; A. terreus strain 2, CHD-FA Dilution 0.25) was “No Growth” and the “Amphotericin MIC” value (Aspergillus terreus; A. terreus strain 2, CHD-FA Dilution 0.5) was “No Growth”. It also gave an MIC (Aspergillus terreus; A. terreus isolate 1) of 0.5 mg/L (≈ 0.541 µM), an MIC (Aspergillus terreus; A. terreus isolate 2) of 1 mg/L (≈ 1.08 µM) and an Amphotericin MIC (Aspergillus fumigatus; A. fumigates strain 1, CHD-FA Dilution 0.125) of 0.06 mg/L. For the same molecule, the “Amphotericin MIC” value (Aspergillus fumigatus; A. fumigates strain 1, CHD-FA Dilution 0.25) was “No Growth”, the “Amphotericin MIC” value (Aspergillus fumigatus; A. fumigates strain 1, CHD-FA Dilution 0.5) was “No Growth” and the Amphotericin MIC (Aspergillus fumigatus; A. fumigates strain 2, CHD-FA Dilution 0.125) was 0.125 mg/L. For the same molecule, the “Amphotericin MIC” value (Aspergillus fumigatus; A. fumigates strain 2, CHD-FA Dilution 0.25) was “No Growth”, the “Amphotericin MIC” value (Aspergillus fumigatus; A. fumigates strain 2, CHD-FA Dilution 0.5) was “No Growth” and the MIC (Aspergillus fumigatus; A. fumigatus isolate 1) was 0.5 mg/L (≈ 0.541 µM). For the same molecule, the MIC (Aspergillus fumigatus; A. fumigatus isolate 2) was 0.25 mg/L (≈ 0.271 µM) and the “dose required to inhibit Aspergillus” value (Aspergillus) was 3 mg/L.
